In patent US20090197859A1 (Pfizer Inc., priority 2008, published 2009):
Values belong to the molecule of their own block, whether it stands above or below them.

Experiments:
[1] = molecular target: T1, cloned human 5-HT6 receptor (Homo sapiens, UniProt P50406); assay: 5-HT6 Receptor Binding Assay ([3H]-LSD radioligand, SPA); settings: read-out: 5HT6 % inh @ 1 uM
T1 construct: host or cells: HeLa cells, G-418 selection, membrane preparation
Method in brief: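 Membranes from HeLa cells expressing cloned human 5-HT6 receptor, mixed with WGA-coated SPA beads in 20 mM HEPES, 10 mM MgCl2, 150 mM NaCl, 1 mM EDTA pH 7.4 with [3H]-LSD; 1 h at room temperature. Eleven concentrations in duplicate; one-site fit IC50 converted to Ki by Cheng-Prusoff.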

T1 sequence (P50406 whole entry): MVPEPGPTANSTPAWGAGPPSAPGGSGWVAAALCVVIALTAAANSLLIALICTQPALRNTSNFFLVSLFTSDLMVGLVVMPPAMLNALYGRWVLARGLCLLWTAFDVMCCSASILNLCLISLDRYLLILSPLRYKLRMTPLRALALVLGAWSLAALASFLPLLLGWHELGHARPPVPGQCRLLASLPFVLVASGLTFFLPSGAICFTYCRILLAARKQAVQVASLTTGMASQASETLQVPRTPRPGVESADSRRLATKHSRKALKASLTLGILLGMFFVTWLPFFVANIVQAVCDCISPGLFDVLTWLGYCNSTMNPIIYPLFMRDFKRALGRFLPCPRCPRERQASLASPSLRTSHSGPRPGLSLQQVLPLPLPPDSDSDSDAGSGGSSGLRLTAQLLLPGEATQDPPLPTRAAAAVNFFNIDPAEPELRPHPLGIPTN

- melting point: 84 to 86 °C
- inhibition at 1 µM [1]: 97.3%
Structure (SMILES): CN1CCN(c2cccc(C(=O)N3CCC[C@H](Oc4cccc(F)c4)C3)n2)CC1 [Example 75, [(S)-3-(3-Fluoro-phenoxy)-piperidin-1-yl]-[6-(4-methyl-piperazin-1-yl)-pyridin-2-yl]-methanone]

- melting point: 148.6 to 149.5 °C
- inhibition at 1 µM [1]: 98.7%
Structure (SMILES): CN1CCN(c2cccc(C(=O)N3CCC(c4ccc(F)cc4F)CC3)n2)CC1 [Example 102, [4-(2,4-Difluoro-phenyl)-piperidin-1-yl]-[6-(4-methyl-piperazin-1-yl)-pyridin-2-yl]-methanone]

- melting point: 85.1 to 86.2 °C
- inhibition at 1 µM [1]: 101%
Structure (SMILES): Cc1ccc(F)cc1C1CCN(C(=O)c2cccc(N3CCN(C)CC3)n2)CC1 [Example 103, [4-(5-Fluoro-2-methyl-phenyl)-piperidin-1-yl]-[6-(4-methyl-piperazin-1-yl)-pyridin-2-yl]-methanone]

- melting point: 128.6 to 129.2 °C
- inhibition at 1 µM [1]: 101%
Structure (SMILES): Cc1c(F)cccc1C1CCN(C(=O)c2cccc(N3CCN(C)CC3)n2)CC1 [Example 104, [4-(3-Fluoro-2-methyl-phenyl)-piperidin-1-yl]-[6-(4-methyl-piperazin-1-yl)-pyridin-2-yl]-methanone]

- melting point: 156.4 to 157.7 °C
- inhibition at 1 µM [1]: 97.6%
Structure (SMILES): Cc1cc(F)ccc1C1CCN(C(=O)c2cccc(N3CCN(C)CC3)n2)CC1 [Example 105, [4-(4-Fluoro-2-methyl-phenyl)-piperidin-1-yl]-[6-(4-methyl-piperazin-1-yl)-pyridin-2-yl]-methanone]

- melting point: 116.2 to 117.4 °C
- inhibition at 1 µM [1]: 93.6%
Structure (SMILES): Cc1cc(F)ccc1C1CCN(C(=O)c2cccc(C3CCN(C)C3)n2)CC1 (stereo not drawn) [Example 106, [4-(4-Fluoro-2-methyl-phenyl)-piperidin-1-yl]-[6-(1-methyl-pyrrolidin-3-yl)-pyridin-2-yl]-methanone]

- melting point: 139.6 to 141.41 °C
- inhibition at 1 µM [1]: 97.7%
Structure (SMILES): Cc1ccc(F)cc1C1CCN(C(=O)c2cccc(C3CCN(C)C3)n2)CC1 (stereo not drawn) [Example 112, [4-(5-Fluoro-2-methyl-phenyl)-piperidin-1-yl]-[6-(1-methyl-pyrrolidin-3-yl)-pyridin-2-yl]-methanone]

The next lines start with the molecule.

Structure (SMILES): Cc1cccc(O[C@H]2CCCN(C(=O)c3cccc(N4CCN(C)CC4)n3)C2)c1 [Example 76, [6-(4-Methyl-piperazin-1-yl)-pyridin-2-yl]-((S)-3-m-tolyloxy-piperidin-1-yl)-methanone]
- melting point: 73 to 75 °C
- inhibition at 1 µM [1]: 99%

Structure (SMILES): CN1CCN(c2cccc(C(=O)N3CCC[C@H](Oc4cccc(Cl)c4)C3)n2)CC1 [Example 77, [(S)-3-(3-Chloro-phenoxy)-piperidin-1-yl]-[6-(4-methyl-piperazin-1-yl)-pyridin-2-yl]-methanone]
- melting point: 78 to 80 °C
- inhibition at 1 µM [1]: 99.5%

Structure (SMILES): CN1CCN(c2cccc(S(=O)(=O)N3CCCCC3c3ccccc3F)n2)CC1 (stereo not drawn) [Example 79, 1-{6-[2-(2-Fluoro-phenyl)-piperidine-1-sulfonyl]-pyridin-2-yl}-4-methyl-piperazine]
- melting point: 195.3 to 196.4 °C
- inhibition at 1 µM [1]: 90.2%

Structure (SMILES): CN1CCCN(c2cccc(C(=O)N3CCCC[C@@H]3c3cccc(F)c3)n2)CC1 [Example 80, [(R)-2-(3-Fluoro-phenyl)-piperidin-1-yl]-[6-(4-methyl-[1,4]diazepan-1-yl)-pyridin-2-yl]-methanone]
- melting point: 155 to 156.2 °C
- inhibition at 1 µM [1]: 91.7%

Structure (SMILES): CN1CCCN(c2cccc(C(=O)N3CCC[C@H](Oc4cccc(F)c4)C3)n2)CC1 [Example 85, [(S)-3-(3-Fluoro-phenoxy)-piperidin-1-yl]-[6-(4-methyl-[1,4]diazepan-1-yl)-pyridin-2-yl]-methanone]
- melting point: 113 to 115 °C
- inhibition at 1 µM [1]: 99.1%

Structure (SMILES): Cc1cccc(O[C@H]2CCCN(C(=O)c3cccc(N4CCCN(C)CC4)n3)C2)c1 [Example 86, [6-(4-Methyl-[1,4]diazepan-1-yl)-pyridin-2-yl]-((S)-3-m-tolyloxy-piperidin-1-yl)-methanone]
- melting point: 118 to 120 °C
- inhibition at 1 µM [1]: 99.5%

Structure (SMILES): CN1CCCN(c2cccc(C(=O)N3CCC[C@H](Oc4cccc(Cl)c4)C3)n2)CC1 [Example 87, [(S)-3-(3-Chloro-phenoxy)-piperidin-1-yl]-[6-(4-methyl-[1,4]diazepan-1-yl)-pyridin-2-yl]-methanone]
- melting point: 110 to 112 °C
- inhibition at 1 µM [1]: 98.9%

Structure (SMILES): CN1CCN(c2cccc(S(=O)(=O)N3CCC(c4ccccc4F)CC3)n2)CC1 [Example 88, 1-{6-[4-(2-Fluoro-phenyl)-piperidine-1-sulfonyl]-pyridin-2-yl}-4-methyl-piperazine]
- melting point: 240.5 to 242 °C
- inhibition at 1 µM [1]: 102%

Structure (SMILES): Cc1ccc(CN(C)C(=O)c2cccc(N3CCN(C)CC3)n2)cc1 [Example 90, 6-(4-Methyl-piperazin-1-yl)-pyridine-2-carboxylic acid methyl-(4-methyl-benzyl)-amide]
- melting point: 98 to 99 °C
- inhibition at 1 µM [1]: 89.4%

Structure (SMILES): CN1CCN(c2cccc(C(=O)N(C)Cc3ccccc3C(F)(F)F)n2)CC1 [Example 92, 6-(4-Methyl-piperazin-1-yl)-pyridine-2-carboxylic acid methyl-(2-trifluoromethyl-benzyl)-amide]
- melting point: 199.5 to 200.6 °C
- inhibition at 1 µM [1]: 83%

Structure (SMILES): Cc1cccc([C@@H](C)N(C)C(=O)c2cccc(N3CCN(C)CC3)n2)c1 [Example 93, 6-(4-Methyl-piperazin-1-yl)-pyridine-2-carboxylic acid methyl-((R)-1-m-tolyl-ethyl)-amide]
- melting point: 126 to 128 °C
- inhibition at 1 µM [1]: 99.4%

Structure (SMILES): CN1CCC(c2cccc(C(=O)N3CCC(Oc4ccccc4Cl)CC3)n2)CC1 [Example 96, [4-(2-Chloro-phenoxy)-piperidin-1-yl]-(1′-methyl-1′,2′,3′,4′,5′,6′-hexahydro-[2,4′]bipyridinyl-6-yl)-methanone]
- melting point: 119 to 121 °C
- inhibition at 1 µM [1]: 85.8%

Structure (SMILES): CN1CC(c2cccc(C(=O)N3CCC(Oc4ccc(F)cc4)CC3)n2)C1 [Example 97, [4-(4-Fluoro-phenoxy)-piperidin-1-yl]-[6-(1-methyl-azetidin-3-yl)-pyridin-2-yl]-methanone]
- melting point: 141.6 to 142.9 °C
- inhibition at 1 µM [1]: 79.6%

Structure (SMILES): Cc1cccc(F)c1C1CCN(C(=O)c2cccc(C3CCN(C)C3)n2)CC1 (stereo not drawn) [Example 111, [4-(2-Fluoro-6-methyl-phenyl)-piperidin-1-yl]-[6-(1-methyl-pyrrolidin-3-yl)-pyridin-2-yl]-methanone]
- melting point: 122.6 to 123.2 °C
- inhibition at 1 µM [1]: 104%
